Test results published in US20220362215A1, “THERAPEUTIC OR PROPHYLACTIC AGENT FOR CHRONIC KIDNEY DISEASE CONTAINING PYRAZOLE-AMIDE COMPOUND” (JAPAN TOBACCO INC., priority 2018, published 2022).

How the values were obtained:
[1] = system: saline-loaded SDT-fatty rats; 5/6 nephrectomized rats; test: disease model animals exhibiting CKD-like renal disorder and decreased renal function (saline-loaded SDT-fatty rat model; 5/6 nephrectomized rat model); format: in vivo; conditions: oral administration in feed
Procedure: Experimental Example 1: Suppressive effects of compound A on urinary protein excretion and renal disorder by oral administration of monohydrate of compound A in saline-loaded SDT-fatty rat model
In saline-loaded Spontaneously Diabetic Torii fatty (SDI-fatty) rats, suppressive effects of compound A on urinary protein excretion and renal disorder were evaluated. The evaluation was performed by reference to non-patent document 1. As the experiment animal, 6-week-old male SDI-fatty rats (CLEA Japan, Inc.) were used. A normal powder feed (CRF-1 powder, Oriental Yeast. Co., ltd.) containing 0.005 w/w % of a monohydrate of compound A as a free form of compound A was prepared. […]
For urine, after measuring the urine volume, the protein concentration in the urine was measured by the absorbance at wavelength 590 nm using a total protein quantification kit (TONEIN-TP, Otsuka Pharmaceutical Co., Ltd.). Amount of the urinary protein excretion (mg/6 hours) was calculated from the urine volume and protein concentration. […]
The mean and standard deviation of urinary protein excretion for each group were calculated, and the results thereof are shown in FIG. 1. […]
In 5/6 nephrectomized rats, suppressive effects of compound A on urinary protein excretion and renal disorder were evaluated. […]

[2] = system: pyruvate dehydrogenase kinase (PDHK); conditions: as described in patent document 1 (WO 2014/142290); cited from earlier work

## CC(C)(O)CCOc1cc(-c2cnn(C(C)(C)C(N)=O)c2)c2c(c1)[C@@](O)(C(F)(F)F)c1ccccc1-2 [compound A, 2-{4-[(9R)-9-hydroxy-2-(3-hydroxy-3-methylbutyloxy)-9-(trifluoromethyl)-9H-fluoren-4-yl]-1H-pyrazol-1-yl}-2-methylpropanamide]
[1]
  severity of the disease: significantly reduces the severity of the disease
[2]
  pyruvate dehydrogenase kinase (PDHK) inhibitory activity: inhibitory activity
